Key:
nAChR subtype alpha7 [1] = target: T1, nAChR subtype alpha7 (Homo sapiens, UniProt P36544); assay: nAChR agonist response (ACh-normalised evoked current), subtype alpha7; assay type: cell-based; conditions: 300 micromolar concentration
T1 construct: expressed in transfected cells
From the text: In general, a nAChR agonist is a full agonist if it evokes a response upon binding to a given receptor that is equal or greater to that of ACh.
nAChR agonist response, from which receptor activation can be determined can, for example, be generated using an appropriate cell-based assay. Cells designed to express a particular nAChR receptor subtype and generate an electrical current response when bound to and activated by a nAChR agonist can be used to characterize the agonist profile of a compound and the amount of receptor activation thus determined. An example of a generic protocol is described below.
Cells that express a particular human nAChR subtype are first exposed to ACh. ACh binds and activates the receptor, thereby evoking a current. The concentration of the ACh is chosen to elicit the maximum response of the receptor (e.g., 1280 micromolar ACh). This current is recorded as the ACh response and serves as the 100% nAChR agonist response and to which responses to other nAChR agonists are compared. […]
The current evoked by exposure to the nAChR agonist is measured and recorded for each nAChR concentration. […] The nAChR agonist response is then calculated as a percentage of the ACh response.
A nAChR agonist evoking a response equal to or greater than the maximum ACh response determined at the same receptor type is a full agonist. […]

nAChR subtype alpha7 [2] = target: T1, nAChR subtype alpha7; conditions: cited from earlier work
[3] = target: T2, nAChR subtype alpha3beta4 (Homo sapiens, UniProt P30926+P32297); conditions: cited from earlier work
T2 construct: expressed in transfected cells

[4] = target: T3, nAChR subtype alpha4beta2 (Homo sapiens, UniProt P17787+P43681); conditions: cited from earlier work
T3 construct: expressed in transfected cells

[5] = target: T4, nAChR subtype alpha3alpha5beta4 (Homo sapiens, UniProt P30926+P32297); conditions: cited from earlier work
T4 construct: expressed in transfected cells

[6] = target: T5, nAChR subtype alpha4alpha6beta2 (Homo sapiens, UniProt P17787+P43681+Q15825); conditions: cited from earlier work
T5 construct: expressed in transfected cells

[7] = target: T6, nAChR subtype alpha3beta2 (Homo sapiens, UniProt P17787+P32297); conditions: cited from earlier work
T6 construct: expressed in transfected cells

[8] = target: T7, nAChR subtype alpha6beta2 (Homo sapiens, UniProt P17787+Q15825); conditions: cited from earlier work
T7 construct: expressed in transfected cells
T7 sequence (Q15825 26-494): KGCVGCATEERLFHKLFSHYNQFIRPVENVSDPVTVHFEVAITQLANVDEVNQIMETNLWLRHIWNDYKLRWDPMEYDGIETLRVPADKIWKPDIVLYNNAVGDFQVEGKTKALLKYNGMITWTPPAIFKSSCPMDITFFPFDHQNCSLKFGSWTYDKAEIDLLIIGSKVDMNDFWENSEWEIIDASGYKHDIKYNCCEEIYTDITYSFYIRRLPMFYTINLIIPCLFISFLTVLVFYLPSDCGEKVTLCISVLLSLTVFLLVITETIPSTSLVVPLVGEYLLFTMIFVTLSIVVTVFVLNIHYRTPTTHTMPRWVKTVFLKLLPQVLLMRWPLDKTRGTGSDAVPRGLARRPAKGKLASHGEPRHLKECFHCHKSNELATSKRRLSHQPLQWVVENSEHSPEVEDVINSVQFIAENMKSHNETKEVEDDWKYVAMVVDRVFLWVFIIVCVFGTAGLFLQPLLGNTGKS
T7 sequence (P17787 26-502): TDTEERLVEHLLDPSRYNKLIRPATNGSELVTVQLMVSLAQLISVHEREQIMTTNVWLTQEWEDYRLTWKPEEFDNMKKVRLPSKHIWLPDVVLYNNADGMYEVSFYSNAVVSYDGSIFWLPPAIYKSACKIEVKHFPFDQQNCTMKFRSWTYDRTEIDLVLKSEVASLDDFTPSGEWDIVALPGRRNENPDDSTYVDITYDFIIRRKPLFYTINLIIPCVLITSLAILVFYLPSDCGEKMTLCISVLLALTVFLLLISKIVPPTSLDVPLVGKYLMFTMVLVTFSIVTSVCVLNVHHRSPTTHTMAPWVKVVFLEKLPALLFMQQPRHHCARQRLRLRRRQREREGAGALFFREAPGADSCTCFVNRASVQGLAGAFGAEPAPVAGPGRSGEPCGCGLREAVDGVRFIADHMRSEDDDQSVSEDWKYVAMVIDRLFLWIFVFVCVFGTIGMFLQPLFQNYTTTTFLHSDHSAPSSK

T1 sequence (P36544 23-502): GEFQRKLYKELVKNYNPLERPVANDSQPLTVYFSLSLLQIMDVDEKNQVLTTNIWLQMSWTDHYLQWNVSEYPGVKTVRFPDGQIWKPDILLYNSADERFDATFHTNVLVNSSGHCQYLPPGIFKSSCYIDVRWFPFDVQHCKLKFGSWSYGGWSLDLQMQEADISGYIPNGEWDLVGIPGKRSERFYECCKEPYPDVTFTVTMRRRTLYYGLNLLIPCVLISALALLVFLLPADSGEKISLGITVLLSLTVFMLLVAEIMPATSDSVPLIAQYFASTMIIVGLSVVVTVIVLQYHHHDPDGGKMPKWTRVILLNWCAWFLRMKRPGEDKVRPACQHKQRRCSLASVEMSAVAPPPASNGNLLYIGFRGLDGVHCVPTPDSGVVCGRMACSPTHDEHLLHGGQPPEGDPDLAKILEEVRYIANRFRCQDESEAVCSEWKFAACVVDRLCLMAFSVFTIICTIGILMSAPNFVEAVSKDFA
T5 sequence (P43681 29-627 limits assumed): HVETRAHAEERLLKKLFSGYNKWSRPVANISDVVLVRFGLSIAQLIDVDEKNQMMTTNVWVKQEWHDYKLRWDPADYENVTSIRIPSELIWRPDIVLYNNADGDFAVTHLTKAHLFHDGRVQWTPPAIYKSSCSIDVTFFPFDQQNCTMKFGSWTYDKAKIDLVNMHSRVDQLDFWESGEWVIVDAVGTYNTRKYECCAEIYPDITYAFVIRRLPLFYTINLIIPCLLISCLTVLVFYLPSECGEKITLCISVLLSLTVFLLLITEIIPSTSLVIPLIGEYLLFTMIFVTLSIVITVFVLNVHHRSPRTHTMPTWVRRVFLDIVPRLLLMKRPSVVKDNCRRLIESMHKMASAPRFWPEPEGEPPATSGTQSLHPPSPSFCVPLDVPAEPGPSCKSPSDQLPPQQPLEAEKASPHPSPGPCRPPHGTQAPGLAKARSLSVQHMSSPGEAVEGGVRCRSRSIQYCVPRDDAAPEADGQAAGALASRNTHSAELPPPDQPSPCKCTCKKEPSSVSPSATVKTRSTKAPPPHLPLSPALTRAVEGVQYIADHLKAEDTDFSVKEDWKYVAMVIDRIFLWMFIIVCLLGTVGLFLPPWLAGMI
T5 sequence (Q15825 26-494): as the sequence (Q15825 26-494) above
T5 sequence (P17787 26-502): as the sequence (P17787 26-502) above
T3 sequence (P43681 29-627 limits assumed): as the sequence (P43681 29-627 limits assumed) above
T3 sequence (P17787 26-502): as the sequence (P17787 26-502) above
T4 sequence (P32297 32-505): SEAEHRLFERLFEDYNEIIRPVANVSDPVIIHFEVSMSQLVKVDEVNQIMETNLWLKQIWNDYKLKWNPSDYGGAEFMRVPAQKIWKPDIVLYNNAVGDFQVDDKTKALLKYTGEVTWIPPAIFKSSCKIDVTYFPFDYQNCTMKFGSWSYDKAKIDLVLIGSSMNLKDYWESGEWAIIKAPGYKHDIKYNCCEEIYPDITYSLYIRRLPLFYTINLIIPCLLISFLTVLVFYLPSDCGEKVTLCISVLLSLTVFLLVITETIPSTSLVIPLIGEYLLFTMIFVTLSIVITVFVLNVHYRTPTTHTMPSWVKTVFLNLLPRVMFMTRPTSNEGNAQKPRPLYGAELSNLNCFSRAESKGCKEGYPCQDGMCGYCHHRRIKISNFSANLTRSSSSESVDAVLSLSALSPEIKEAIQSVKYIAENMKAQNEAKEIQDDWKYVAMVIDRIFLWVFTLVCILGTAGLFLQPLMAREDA
T4 sequence (P30532 23-468 partner): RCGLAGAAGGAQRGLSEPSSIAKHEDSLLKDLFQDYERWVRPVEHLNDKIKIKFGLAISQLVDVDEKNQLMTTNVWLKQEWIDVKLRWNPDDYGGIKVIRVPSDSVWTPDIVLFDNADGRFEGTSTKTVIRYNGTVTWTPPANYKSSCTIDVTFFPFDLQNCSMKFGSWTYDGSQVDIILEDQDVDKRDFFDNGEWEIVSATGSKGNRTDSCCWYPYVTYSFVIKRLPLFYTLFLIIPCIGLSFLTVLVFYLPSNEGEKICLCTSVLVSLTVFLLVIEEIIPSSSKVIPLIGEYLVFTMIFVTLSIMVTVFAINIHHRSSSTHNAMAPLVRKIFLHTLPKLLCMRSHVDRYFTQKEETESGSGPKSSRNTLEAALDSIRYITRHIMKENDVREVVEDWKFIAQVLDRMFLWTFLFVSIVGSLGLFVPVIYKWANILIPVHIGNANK
T4 sequence (P30926 22-498): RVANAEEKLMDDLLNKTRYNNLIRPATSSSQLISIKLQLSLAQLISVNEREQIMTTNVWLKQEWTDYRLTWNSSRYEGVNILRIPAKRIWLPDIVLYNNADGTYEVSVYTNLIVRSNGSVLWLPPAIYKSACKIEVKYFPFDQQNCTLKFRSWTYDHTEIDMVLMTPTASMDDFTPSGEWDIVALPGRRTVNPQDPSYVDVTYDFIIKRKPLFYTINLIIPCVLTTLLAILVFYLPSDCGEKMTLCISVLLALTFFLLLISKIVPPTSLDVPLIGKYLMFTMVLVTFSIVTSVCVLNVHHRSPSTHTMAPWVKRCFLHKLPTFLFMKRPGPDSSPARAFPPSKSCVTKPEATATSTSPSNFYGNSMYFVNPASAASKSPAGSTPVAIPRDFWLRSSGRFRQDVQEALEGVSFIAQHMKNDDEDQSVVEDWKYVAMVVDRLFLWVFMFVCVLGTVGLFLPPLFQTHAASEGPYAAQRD
T2 sequence (P32297 32-505): as the sequence (P32297 32-505) above
T2 sequence (P30926 22-498): as the sequence (P30926 22-498) above
T6 sequence (P32297 32-505): as the sequence (P32297 32-505) above
T6 sequence (P17787 26-502): as the sequence (P17787 26-502) above

SMILES | evoked current as % of the maximal ACh-evoked current (nAChR subtype alpha7 [1]) [%] | agonist characterisation at nAChR subtype alpha7 (nAChR subtype alpha7 [2]) | agonist characterisation at nAChR subtype alpha3beta4 [3] | agonist characterisation at nAChR subtype alpha4beta2 [4] | agonist characterisation at nAChR subtype alpha3alpha5beta4 [5] | agonist characterisation at nAChR subtype alpha4alpha6beta2 [6] | agonist characterisation at nAChR subtype alpha3beta2 [7] | agonist characterisation at nAChR subtype alpha6beta2 [8]
C(=C\[C@H]1CCNC1)/c1cncnc1.O=C(O)CC(O)(CC(=O)O)C(=O)O [compound 1 citrate, (R)-5-((E)-2-pyrrolidin-3-ylvinyl)pyrimidine mono-citrate] | 25 |  |  |  |  |  |  | 
C(=C\[C@H]1CCNC1)/c1cncnc1 [Compound 1, (R)-5-((E)-2-pyrrolidin-3-ylvinyl)pyrimidine] |  | weak partial agonist | full agonist | full agonist | full agonist | full agonist | partial agonist | 
O=C(O)C(O)C(O)C(=O)O.c1cnc2cc3c(cc2n1)C1CNCC3C1 [Varenicline] |  | full agonist | partial agonist | partial agonist | partial agonist | partial agonist |  | partial agonist
